Laboratory results reported in patent publication USRE38115E1, “Dextromethorphan and an oxidase inhibitor for treating intractable conditions” (Center for Neurologic Study, priority 1996, dated 2003).
“And” between values parts separate entries of the source, which are not always exact repeats. Equal values may be shown once.

Columns and labels:
debrisoquin hydroxylase = debrisoquin hydroxylase (Homo sapiens, UniProt P10635); details: cited from earlier work
[1] = test system: dextromethorphan metabolism; test: Urinary DM/DR ratios (Example 1); details: urine, several hours after single 60 mg oral DM; ALS patients, one value per patient
Protocol: Six patients suffering from ALS were administered orally a single 60 mg dextromethorphan dose. Several hours later, a urine sample was collected, and the urine concentrations of dextromethorphan (DM) and dextrorphan (DR) were measured as described below to determine a DM/DR ratio.
To this was added 2000 units of betaglucuronidase in 1 mL of acetate buffer (0.1M, pH 5.0). The mixture was incubated for 18 hours at 37° C. and then extracted by adding 1 mL of phosphate buffer (pH 12, 0.10M) and 7 mL of n-butanol/hexane (10:90 v/v). After mixing and centrifugation, the organic layer was transferred to a clean tube, acidified with 400 uL of 0.01N HCL and 20 microliters (uL) of aqueous phase injected into a high performance liquid chromatography (HPLC) system. The HPLC used a phenyl column equilibrated with a mobile phase of acetonitrile:water (51:49 v/v) containing 10 mM KHPO4, 10 mM hexane sulfonic acid, pH 4.0 (flow rate 1.2 mL/min).
Briefly, 0.5 ml urine samples were spiked with 500 nanograms (ng) of dimethacrine. The urine pH was adjusted to […] with 0.1M acetate buffer (usually about 1.0 ml), and beta-glucuronidase was added (2000 units/ml urine). The mixture was incubated and shaken at 37° C. for 18 hours. The urine was subsequently adjusted to pH 10-11 with 1.0 mL of phosphate buffer and the urine extracted with 5 mL of dichloromethane. […]

[2] = Plasma concentrations of DM (Example 2); format: in vivo, human; details: DM 120 MG/DAY oral, quinidine 0; blood 10-12 hours later; one value per patient; listed as dextromethorphan
Protocol: Between 10 and 12 hours later, blood was sampled, blood plasma was isolated by centrifugation, and the plasma was analyzed to determine the DM concentration using the thebaine/HPLC method.
Between 10 and 12 hours later, blood was sampled and the plasma was analyzed for DM using thebaine/HPLC.

[3] = test system: patients with emotional lability; details: patients with bilateral neurological damage; described in U.S. Pat. No. 5,206,248; cited from earlier work
DM oxidation = test: Urinary DM/DRP ratio with other antioxidants (Example 4); details: urine; for baseline DM/DRP ratio: DM alone
Protocol: In these tests, DM was administered at a constant dosage to various individuals, all were healthy volunteers. DM was taken both before and after a candidate antioxidant was taken, and urine samples were collected at appropriate times and analyzed to determine the quantity of DM and its principle metabolite dextrorphan (DRP) in the urine.
Twelve healthy volunteers were studied.
After the baseline DM/DRP value for each volunteer had been determined, a candidate antioxidant was administered. […] After an appropriate delay, a second urine sample was obtained and analyzed. Each agent was administered to two patients.

Chain of debrisoquin hydroxylase (P10635 whole entry): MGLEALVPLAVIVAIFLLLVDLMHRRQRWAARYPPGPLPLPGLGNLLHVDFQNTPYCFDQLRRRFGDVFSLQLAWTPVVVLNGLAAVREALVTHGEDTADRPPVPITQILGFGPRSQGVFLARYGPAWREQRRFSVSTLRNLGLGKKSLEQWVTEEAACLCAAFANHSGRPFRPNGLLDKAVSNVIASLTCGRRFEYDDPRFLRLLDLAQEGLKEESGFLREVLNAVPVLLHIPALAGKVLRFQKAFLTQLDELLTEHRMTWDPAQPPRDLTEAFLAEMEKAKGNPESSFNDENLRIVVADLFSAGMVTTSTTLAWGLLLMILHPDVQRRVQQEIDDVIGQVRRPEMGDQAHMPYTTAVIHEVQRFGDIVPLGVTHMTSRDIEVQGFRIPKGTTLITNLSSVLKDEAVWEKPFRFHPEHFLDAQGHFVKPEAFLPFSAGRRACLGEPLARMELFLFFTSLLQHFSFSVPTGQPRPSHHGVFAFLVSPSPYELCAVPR

CNCCC=C1c2ccccc2CCc2ccccc21 [nortriptyline]
Ki (debrisoquin hydroxylase): ≤ 50 µM

Cc1cccc(C)c1OCC(C)N (stereo not shown) [mexiletine]
Ki (debrisoquin hydroxylase): ≤ 50 µM

CC(CCc1ccccc1)NCC(O)c1ccc(O)c(C(N)=O)c1 (stereo not shown) [labetalol]
Ki (debrisoquin hydroxylase): ≤ 50 µM

C=CCOc1ccccc1OCC(O)CNC(C)C (stereo not shown) [oxprenolol]
Ki (debrisoquin hydroxylase): ≤ 50 µM

COc1ccc2c(c1)[C@@]13CCCC[C@H]1[C@@H](C2)N(C)CC3 [DM, (+)-3-methoxy-N-methylmorphinan]
DM/DR Ratio, no quinidine [1]: <0.0002 and 0.054 and 0.0048 and 0.0220 and 0.0002 and 0.0003 | DEXTROMETHORPHAN PLASMA LEVEL [2]: 9.3 NG/ML and NOT DETECTABLE (2×) and 16.5 NG/ML and 6.05 NG/ML | effect on symptoms of emotional lability [3]: not observed in any patients who received DM alone | baseline DM/DRP ratio (DM oxidation; extensive metabolizers, healthy volunteers): ≤ 0.06 | baseline DM/DRP ratio (DM oxidation; one poor metabolizer (control)): 1.338 | DM/DRP ratio, pre-drug baseline (DM oxidation; DM before candidate antioxidant, single subjects): 0.02 (2×) and 0.00 (3×) and 0.03 and 0.06 (2×)
